Holding throughout (test): Growth inhibitory activity of compounds on BaF3 cell lines stably transfected with kinase (MTS, 48 h)
Common to all, as to assay type: cell-based

The target in assay [1] is T1, various mutants of kinase EGFR (BaF3 cell lines stably transfected with kinase) (Homo sapiens, UniProt P00533, T790M/C797S, form not given).
T1 construct: other: BaF3 cells stably transfected with EGFR Δ19Del/T790M/C797S; MTS, 48; other: BaF3 cell line stably transfected with EGFR Δ19Del/T790M/C7
To be noted: BaF3 cells stably transfected with EGFR Δ19Del/T790M/C797S, read-out: IC50, growth inhibition, Δ19Del/T790M/C797S. The procedure, abridged:
(§1)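 Cells in DMEM or RPMI 1640 with 10% FBS were exposed to compound at 8 concentrations (top 10 µM, 1/3 steps, 0.1% DMSO) for 48 h at 37 °C, 5% CO2. MTS/PES was then added for 1-4 h and OD490 read; IC50 was fitted from growth inhibition versus 0.1% DMSO control.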

In assay [2] the target is T2, various mutants of kinase EGFR (BaF3 cell lines stably transfected with kinase) (Homo sapiens, UniProt P00533, L858R/T790M).
T2 construct: expressed in transfected cells; host or cells: BaF3
To be noted: BaF3 cells stably transfected with EGFR L858R/T790M, read-out: IC50, growth inhibition, L858R/T790M. The procedure, abridged:
as §1

Assay [3] has as its target T3, various mutants of kinase EGFR (BaF3 cell lines stably transfected with kinase) (Homo sapiens, UniProt P00533).
T3 construct: other: BaF3 cells stably transfected with EGFR Δ19Del; MTS, 48 h; other: BaF3 cell line stably transfected with EGFR Δ19Del
The conditions noted are these: BaF3 cells stably transfected with EGFR Δ19Del, read-out: IC50, growth inhibition, Δ19Del. In short, it runs like this:
as §1

Assay [4] concerns the target T4, various mutants of kinase EGFR (BaF3 cell lines stably transfected with kinase) (Homo sapiens, UniProt P00533, L858R).
T4 construct: expressed in transfected cells; host or cells: BaF3
The conditions noted are these: BaF3 cells stably transfected with EGFR L858R, read-out: IC50, growth inhibition, L858R. In short, it runs like this:
as §1

Assay [5] addresses T5, various mutants of kinase EGFR (BaF3 cell lines stably transfected with kinase) (Homo sapiens, UniProt P00533, C797S/L858R/T790M).
T5 construct: expressed in transfected cells; host or cells: BaF3
To be noted: BaF3 cells stably transfected with EGFR L858R/T790M/C797S, read-out: IC50, growth inhibition, L858R/T790M/C797S. The procedure, abridged: as §1

For assay [6], the target named is T6, various mutants of kinase EGFR (BaF3 cell lines stably transfected with kinase) (Homo sapiens, UniProt P00533, T790M, form not given).
T6 construct: other: BaF3 cells stably transfected with EGFR Δ19Del/T790M; MTS, 48 h; other: BaF3 cell line stably transfected with EGFR Δ19Del/T790M; MTS, 48
The conditions noted are these: BaF3 cells stably transfected with EGFR Δ19Del/T790M, read-out: IC50, growth inhibition, Δ19Del/T790M. The procedure, abridged: as §1

T3 sequence (P00533 with tags, fused parts or gaps DEL746-750): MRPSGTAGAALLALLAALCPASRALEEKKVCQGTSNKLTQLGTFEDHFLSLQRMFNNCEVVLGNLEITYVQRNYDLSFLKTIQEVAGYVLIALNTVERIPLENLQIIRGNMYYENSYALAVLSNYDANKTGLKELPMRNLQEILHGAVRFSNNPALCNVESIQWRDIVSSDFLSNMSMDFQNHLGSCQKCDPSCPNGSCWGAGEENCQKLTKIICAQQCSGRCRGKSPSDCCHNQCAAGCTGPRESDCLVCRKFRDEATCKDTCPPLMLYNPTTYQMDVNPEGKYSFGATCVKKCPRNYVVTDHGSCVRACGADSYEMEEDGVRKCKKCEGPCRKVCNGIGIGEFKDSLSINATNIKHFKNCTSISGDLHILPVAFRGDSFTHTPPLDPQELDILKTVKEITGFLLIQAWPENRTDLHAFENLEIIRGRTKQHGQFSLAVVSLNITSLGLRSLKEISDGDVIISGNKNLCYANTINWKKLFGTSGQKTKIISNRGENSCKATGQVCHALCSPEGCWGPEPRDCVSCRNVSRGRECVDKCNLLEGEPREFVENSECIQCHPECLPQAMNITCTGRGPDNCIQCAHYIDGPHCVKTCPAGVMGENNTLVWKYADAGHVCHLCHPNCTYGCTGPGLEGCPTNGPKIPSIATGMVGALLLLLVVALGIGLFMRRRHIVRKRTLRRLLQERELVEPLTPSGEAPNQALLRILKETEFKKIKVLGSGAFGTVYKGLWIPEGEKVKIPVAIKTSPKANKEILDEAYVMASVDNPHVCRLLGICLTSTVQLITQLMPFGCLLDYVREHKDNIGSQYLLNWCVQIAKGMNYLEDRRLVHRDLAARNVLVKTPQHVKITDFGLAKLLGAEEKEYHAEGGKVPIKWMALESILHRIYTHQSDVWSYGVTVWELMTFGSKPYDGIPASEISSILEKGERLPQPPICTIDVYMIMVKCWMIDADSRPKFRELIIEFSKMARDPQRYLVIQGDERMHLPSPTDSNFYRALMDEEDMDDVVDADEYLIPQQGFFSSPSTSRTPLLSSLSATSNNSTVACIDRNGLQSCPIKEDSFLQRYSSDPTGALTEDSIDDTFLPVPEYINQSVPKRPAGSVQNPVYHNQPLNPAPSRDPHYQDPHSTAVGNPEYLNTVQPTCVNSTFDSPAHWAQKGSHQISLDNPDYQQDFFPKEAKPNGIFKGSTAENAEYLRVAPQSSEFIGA
T6 sequence (P00533 with tags, fused parts or gaps DEL746-750/T790M, form open): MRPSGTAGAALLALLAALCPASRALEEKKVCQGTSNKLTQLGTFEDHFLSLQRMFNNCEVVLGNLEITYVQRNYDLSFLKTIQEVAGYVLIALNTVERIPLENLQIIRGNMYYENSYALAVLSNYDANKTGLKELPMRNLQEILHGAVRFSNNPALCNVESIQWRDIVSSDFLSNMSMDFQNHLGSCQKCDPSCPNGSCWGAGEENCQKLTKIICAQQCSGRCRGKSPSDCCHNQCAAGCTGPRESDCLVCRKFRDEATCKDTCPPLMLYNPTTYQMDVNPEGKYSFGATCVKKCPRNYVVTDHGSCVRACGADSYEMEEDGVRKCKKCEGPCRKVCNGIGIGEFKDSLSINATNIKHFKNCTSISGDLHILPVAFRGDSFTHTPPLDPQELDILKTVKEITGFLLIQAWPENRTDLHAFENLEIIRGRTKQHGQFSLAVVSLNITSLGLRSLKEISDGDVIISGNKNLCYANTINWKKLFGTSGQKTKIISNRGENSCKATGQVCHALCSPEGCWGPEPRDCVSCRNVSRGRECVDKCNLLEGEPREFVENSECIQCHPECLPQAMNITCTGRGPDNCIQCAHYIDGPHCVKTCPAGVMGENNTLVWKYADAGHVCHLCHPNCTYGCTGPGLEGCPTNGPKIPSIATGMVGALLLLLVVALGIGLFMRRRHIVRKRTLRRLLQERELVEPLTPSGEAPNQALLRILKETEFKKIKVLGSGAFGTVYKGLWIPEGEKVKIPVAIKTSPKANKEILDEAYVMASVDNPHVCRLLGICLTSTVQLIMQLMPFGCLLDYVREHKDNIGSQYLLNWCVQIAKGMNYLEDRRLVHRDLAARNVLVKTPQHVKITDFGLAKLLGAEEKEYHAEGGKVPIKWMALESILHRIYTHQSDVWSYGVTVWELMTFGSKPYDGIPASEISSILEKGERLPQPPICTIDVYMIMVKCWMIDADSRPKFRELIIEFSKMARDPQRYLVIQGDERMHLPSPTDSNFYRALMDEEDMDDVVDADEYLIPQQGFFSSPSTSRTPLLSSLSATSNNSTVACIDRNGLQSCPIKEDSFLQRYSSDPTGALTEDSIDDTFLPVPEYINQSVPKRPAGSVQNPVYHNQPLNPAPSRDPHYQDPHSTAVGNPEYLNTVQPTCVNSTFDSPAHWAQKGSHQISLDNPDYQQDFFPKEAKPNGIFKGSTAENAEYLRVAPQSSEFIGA
T5 sequence (P00533 25-1210 T790M/C797S/L858R): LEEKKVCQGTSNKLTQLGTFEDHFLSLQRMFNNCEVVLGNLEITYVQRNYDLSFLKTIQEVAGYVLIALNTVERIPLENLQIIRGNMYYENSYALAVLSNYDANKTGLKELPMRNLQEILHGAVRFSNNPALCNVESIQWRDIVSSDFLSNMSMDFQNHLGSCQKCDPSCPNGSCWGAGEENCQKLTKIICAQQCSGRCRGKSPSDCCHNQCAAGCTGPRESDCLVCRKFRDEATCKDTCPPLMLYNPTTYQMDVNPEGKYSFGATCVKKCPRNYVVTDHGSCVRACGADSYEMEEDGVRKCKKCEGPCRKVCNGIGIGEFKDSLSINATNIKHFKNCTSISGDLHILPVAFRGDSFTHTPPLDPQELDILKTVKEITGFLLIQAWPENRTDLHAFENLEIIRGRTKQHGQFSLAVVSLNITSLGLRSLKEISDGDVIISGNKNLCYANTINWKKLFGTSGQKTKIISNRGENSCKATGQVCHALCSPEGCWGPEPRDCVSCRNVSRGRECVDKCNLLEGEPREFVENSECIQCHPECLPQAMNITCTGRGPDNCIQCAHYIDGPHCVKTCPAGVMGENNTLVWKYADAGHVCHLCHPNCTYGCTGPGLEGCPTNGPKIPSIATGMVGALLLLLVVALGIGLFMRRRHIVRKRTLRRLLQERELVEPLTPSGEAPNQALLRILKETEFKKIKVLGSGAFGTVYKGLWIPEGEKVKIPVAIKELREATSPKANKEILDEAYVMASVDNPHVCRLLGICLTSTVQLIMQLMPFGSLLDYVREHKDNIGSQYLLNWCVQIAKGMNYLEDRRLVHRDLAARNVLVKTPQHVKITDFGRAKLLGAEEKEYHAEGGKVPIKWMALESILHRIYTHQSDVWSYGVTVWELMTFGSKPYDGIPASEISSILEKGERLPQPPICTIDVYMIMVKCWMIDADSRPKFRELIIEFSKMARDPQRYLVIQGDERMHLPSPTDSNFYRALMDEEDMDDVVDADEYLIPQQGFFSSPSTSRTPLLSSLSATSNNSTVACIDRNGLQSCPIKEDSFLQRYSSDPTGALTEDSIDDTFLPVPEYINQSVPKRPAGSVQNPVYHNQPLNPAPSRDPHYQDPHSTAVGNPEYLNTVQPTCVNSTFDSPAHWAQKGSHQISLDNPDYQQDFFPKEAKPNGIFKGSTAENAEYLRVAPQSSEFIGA
T2 sequence (P00533 25-1210 T790M/L858R): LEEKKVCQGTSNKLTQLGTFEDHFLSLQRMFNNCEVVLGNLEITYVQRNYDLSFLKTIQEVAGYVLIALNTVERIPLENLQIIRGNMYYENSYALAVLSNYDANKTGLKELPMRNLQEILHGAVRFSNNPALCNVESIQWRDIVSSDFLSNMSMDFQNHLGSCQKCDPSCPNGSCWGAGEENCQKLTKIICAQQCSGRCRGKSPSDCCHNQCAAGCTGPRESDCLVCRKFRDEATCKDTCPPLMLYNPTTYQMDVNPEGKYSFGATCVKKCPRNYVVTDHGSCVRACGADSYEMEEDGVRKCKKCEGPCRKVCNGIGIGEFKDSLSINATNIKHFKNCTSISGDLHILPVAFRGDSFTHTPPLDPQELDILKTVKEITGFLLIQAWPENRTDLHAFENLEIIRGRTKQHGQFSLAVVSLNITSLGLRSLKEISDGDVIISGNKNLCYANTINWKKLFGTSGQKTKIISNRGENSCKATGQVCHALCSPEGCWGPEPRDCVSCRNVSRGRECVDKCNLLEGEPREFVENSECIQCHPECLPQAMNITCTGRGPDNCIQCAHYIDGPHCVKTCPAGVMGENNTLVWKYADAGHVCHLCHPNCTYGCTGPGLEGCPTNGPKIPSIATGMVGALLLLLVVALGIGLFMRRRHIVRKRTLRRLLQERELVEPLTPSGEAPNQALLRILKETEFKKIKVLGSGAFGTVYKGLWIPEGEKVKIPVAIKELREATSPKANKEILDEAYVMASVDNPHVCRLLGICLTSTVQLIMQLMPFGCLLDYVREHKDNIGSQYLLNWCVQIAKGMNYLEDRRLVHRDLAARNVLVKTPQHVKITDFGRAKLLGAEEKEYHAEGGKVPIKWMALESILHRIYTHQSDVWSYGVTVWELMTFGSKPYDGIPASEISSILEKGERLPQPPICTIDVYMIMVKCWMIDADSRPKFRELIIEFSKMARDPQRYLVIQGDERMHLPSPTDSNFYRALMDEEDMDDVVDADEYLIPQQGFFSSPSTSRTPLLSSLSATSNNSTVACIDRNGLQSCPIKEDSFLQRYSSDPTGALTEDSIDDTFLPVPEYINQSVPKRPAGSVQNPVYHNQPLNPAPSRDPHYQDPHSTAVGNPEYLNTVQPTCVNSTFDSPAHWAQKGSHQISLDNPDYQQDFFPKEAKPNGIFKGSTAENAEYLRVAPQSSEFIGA

On to `CCc1cc(Nc2ncc(C)c(Nc3ccc4nccnc4c3N(C)S(C)(=O)=O)n2)c(OC)cc1N1CCC(N(C)C)CC1` [Compound I-279], for which the IC50 in assay [1], in assay [2], in assay [3], in assay [4], in assay [5] and in assay [6] was not above 50 nM in each case.
On to `CCc1cc(Nc2ncc(C)c(Nc3ccc4nccnc4c3N(C)S(C)(=O)=O)n2)c(OC)cc1N1CCC(N(C)C)C1` (stereo not drawn) [Compound I-280], for which the IC50 in assay [1], in assay [2], in assay [3], in assay [4], in assay [5] and in assay [6] was not above 50 nM throughout.
Regarding `CCc1cc(Nc2ncc(OC)c(Nc3ccc4nccnc4c3N(C)S(C)(=O)=O)n2)c(OC(F)(F)F)cc1N1CCC(N2CCN(C)CC2)CC1` [Compound I-281], the IC50 in assay [1], in assay [2], in assay [3], in assay [4], in assay [5] and in assay [6] was not above 50 nM in each case.
As for `CCc1cc(Nc2ncc(OC)c(Nc3ccc4nccnc4c3N(C)S(C)(=O)=O)n2)c(OC)cc1N1CCC(N(C)C)CC1` [Compound I-282], the IC50 in assay [1], in assay [2], in assay [3], in assay [4], in assay [5] and in assay [6] was not above 50 nM throughout.
With `CCc1cc(Nc2ncc(OC)c(Nc3ccc4nccnc4c3N(C)S(C)(=O)=O)n2)c(OC)cc1N1CCN(C)CC1` [Compound I-283], the IC50 in assay [1], in assay [2], in assay [3], in assay [4], in assay [5] and in assay [6] was not above 50 nM in each case.
Take `COc1cc(N2CCC(N3CCN(C)CC3)CC2)c(C(C)C)cc1Nc1ncc(Br)c(Nc2ccc3nccnc3c2N(C)S(C)(=O)=O)n1` [Compound I-284]: the IC50 in assay [1] is not above 50 nM; in assay [2], 50 to 500 nM; in assay [3] it was 50 to 500 nM; in assay [4] it was 500 to 2500 nM; in assay [5] it was not above 50 nM; in assay [6], 50 to 500 nM.
Take `COc1cc(N2CCC(N3CCN(C)CC3)CC2)c(C2CC2)cc1Nc1ncc(Br)c(Nc2ccc3nccnc3c2N(C)S(C)(=O)=O)n1` [Compound I-285]: the IC50 is not above 50 nM in assay [1]; not above 50 nM in assay [2]; 50 to 500 nM in assay [3]; 50 to 500 nM in assay [4]; not above 50 nM in assay [5]; not above 50 nM in assay [6].
On to `CCc1cc(Nc2ncc(Br)c(Nc3ccc4nccnc4c3N(C)S(C)(=O)=O)n2)ccc1N1CCC(N2CCN(C)CC2)CC1` [Compound I-286], for which the IC50 in assay [1], in assay [2], in assay [3], in assay [4], in assay [5] and in assay [6] was not above 50 nM throughout.
In the case of `COc1cc(N2CCC(N3CCN(C)CC3)CC2)c(C2CC2)cc1Nc1ncc(Cl)c(Nc2ccc3nccnc3c2N(C)S(C)(=O)=O)n1` [Compound I-287], the IC50 in assay [1] is not above 50 nM; in assay [2], not above 50 nM; in assay [3] it was 50 to 500 nM; in assay [4], 50 to 500 nM; in assay [5], not above 50 nM; in assay [6] it was not above 50 nM.
Regarding `COc1cc(N2CCC(N3CCN(C)CC3)CC2)c(C(C)C)cc1Nc1ncc(Cl)c(Nc2ccc3nccnc3c2N(C)S(C)(=O)=O)n1` [Compound I-288], the IC50 is 50 to 500 nM in assay [1]; 50 to 500 nM in assay [2]; 50 to 500 nM in assay [3]; not above 50 nM in assay [4]; 50 to 500 nM in assay [5]; 50 to 500 nM in assay [6].
Turning to `CCc1cc(Nc2ncc(Cl)c(Nc3ccc4nccnc4c3N(C)S(C)(=O)=O)n2)ccc1N1CCC(N2CCN(C)CC2)CC1` [Compound I-289], the IC50 in assay [1], in assay [2], in assay [3], in assay [4], in assay [5] and in assay [6] was not above 50 nM in each case.
With `C=Cc1cc(Nc2ncc([N+](=O)[O-])c(Nc3ccc4nccnc4c3N(C)S(C)(=O)=O)n2)c(OC(F)(F)F)cc1N1CCC(N2CCN(C)CC2)CC1` [Compound I-290], the IC50 in assay [1] lay in the range of 50 to 500 nM; in assay [2], 50 to 500 nM; in assay [3], 500 to 2500 nM; in assay [4], 500 to 2500 nM; in assay [5], 50 to 500 nM; in assay [6], 50 to 500 nM.
`COc1cc(N2CCC(N3CCN(C)CC3)CC2)c(C(C)C)cc1Nc1ncc(C2CC2)c(Nc2ccc3nccnc3c2N(C)S(C)(=O)=O)n1` [Compound I-291]: the IC50 in assay [1] lay in the range of 50 to 500 nM; in assay [2] it was 50 to 500 nM; in assay [3], 50 to 500 nM; in assay [4] it was 50 to 500 nM; in assay [5], 500 to 2500 nM; in assay [6] it was 50 to 500 nM.
As to `COc1cc(N2CCC(N3CCN(C)CC3)CC2)c(C2CC2)cc1Nc1ncc(C2CC2)c(Nc2ccc3nccnc3c2N(C)S(C)(=O)=O)n1` [Compound I-292], the IC50 in assay [1] is 50 to 500 nM; in assay [2] it was not above 50 nM; in assay [3] it was 50 to 500 nM; in assay [4], 50 to 500 nM; in assay [5], 50 to 500 nM; in assay [6] it was not above 50 nM.
On to `CCc1cc(Nc2ncc(C3CC3)c(Nc3ccc4nccnc4c3N(C)S(C)(=O)=O)n2)ccc1N1CCC(N2CCN(C)CC2)CC1` [Compound I-293], for which the IC50 in assay [1] is 50 to 500 nM; in assay [2], not above 50 nM; in assay [3] it was 50 to 500 nM; in assay [4], 50 to 500 nM; in assay [5] it was 50 to 500 nM; in assay [6], not above 50 nM.
For the compound `CCS(=O)(=O)N(C)c1c(Nc2nc(Nc3ccc(N4CCC(N5CCN(C)CC5)CC4)cc3OC)ncc2Cl)ccc2nccnc12` [Compound I-294], the IC50 in assay [1] is not above 50 nM; in assay [2] it was 50 to 500 nM; in assay [3], 50 to 500 nM; in assay [4] it was 50 to 500 nM; in assay [5], 50 to 500 nM; in assay [6] it was 50 to 500 nM.
As to `C=Cc1cc(Nc2ncc(Cl)c(Nc3ccc4nccnc4c3N(C)S(=O)(=O)CC)n2)c(OC(F)(F)F)cc1N1CCC(N2CCN(C)CC2)CC1` [Compound I-295], the IC50 in assay [1] is not above 50 nM; in assay [2], 50 to 500 nM; in assay [3], 50 to 500 nM; in assay [4], 50 to 500 nM; in assay [5] it was 50 to 500 nM; in assay [6] it was 50 to 500 nM.
Regarding `CCN(c1c(Nc2nc(Nc3ccc(N4CCC(N5CCN(C)CC5)CC4)nc3OC)ncc2Br)ccc2nccnc12)S(C)(=O)=O` [Compound I-296], the IC50 lay in the range of 500 to 2500 nM in assay [1]; 50 to 500 nM in assay [2]; 50 to 500 nM in assay [3]; 50 to 500 nM in assay [4]; 50 to 500 nM in assay [5]; 50 to 500 nM in assay [6].
As to `CCN(c1c(Nc2nc(Nc3cc(C)c(N4CCC(N5CCN(C)CC5)CC4)nc3OC)ncc2Br)ccc2nccnc12)S(C)(=O)=O` [Compound I-297], the IC50 is 500 to 2500 nM in assay [1]; 50 to 500 nM in assay [2]; 500 to 2500 nM in assay [3]; 50 to 500 nM in assay [4]; 500 to 2500 nM in assay [5]; 50 to 500 nM in assay [6].
For `C=Cc1cc(Nc2ncc(Br)c(Nc3ccc4nccnc4c3N(CC)S(C)(=O)=O)n2)c(OC(F)(F)F)cc1N1CCC(N2CCN(C)CC2)CC1` [Compound I-298], the IC50 in assay [1] is not above 50 nM; in assay [2], 50 to 500 nM; in assay [3] it was 50 to 500 nM; in assay [4] it was 50 to 500 nM; in assay [5] it was not above 50 nM; in assay [6] it was not above 50 nM.
Take `CCN(c1c(Nc2nc(Nc3cc(C)c(N4CCC(N(C)C)CC4)cc3OC)ncc2Br)ccc2nccnc12)S(C)(=O)=O` [Compound I-299]: the IC50 in assay [1] was not above 50 nM; in assay [2], not above 50 nM; in assay [3], not above 50 nM; in assay [4], 50 to 500 nM; in assay [5], not above 50 nM; in assay [6] it was not above 50 nM.
Regarding `CCN(c1c(Nc2nc(Nc3cc(C)c(N4CCN(C)CC4)cc3OC)ncc2Br)ccc2nccnc12)S(C)(=O)=O` [Compound I-300], the IC50 in assay [1] was not above 50 nM; in assay [2], not above 50 nM; in assay [3], 50 to 500 nM; in assay [4] it was 50 to 500 nM; in assay [5], not above 50 nM; in assay [6], 50 to 500 nM.

Source of the values: patent US20230310428A1, “EGFR INHIBITOR AND PREPARATION METHOD AND USE THEREOF” (HONGYUN BIOTECH CO., LTD., priority 2020, published 2023).
